Experimental data taken from patent US20230049113A1, “METHODS OF TREATING WHSC1-OVEREXPRESSING CANCERS BY INHIBITING SETD2” (priority 2018, published 2023).
Entries after “also recorded” stand apart in the source; their conditions may differ.

Legend:
[1] = 7-day dose range finding study in mice
Method: Dose Range Finding Studies
(§2) All the procedures related to animal handling, care, and treatment in this study were performed according to the guidelines approved by the Institutional Animal Care and Use Committee of Pharmaron, Beijing, China and following the guidance of the Association for Assessment and Accreditation of Laboratory Animal Care.
(§3) Six to eight-week-old NOD SCID mice were purchased from Beijing HFK Bioscience Co., Ltd. Mice were housed in polycarbonate cages maintained at a temperature of (22+/−3° C.) and relative humidity of 40-70%. Animals had free access to sterile drinking water and irradiation sterilized dry granule food throughout the study.

H3K36me3 / H3K36me2 = test: Western blot of H3K36 methyl marks in KMS-34 cells; assay type: cell-based, human; conditions: KMS-34, after 14 days
Method: Cells were pelleted, washed with ice-cold 1×PBS, resuspended in ice-cold NP40 buffer, and incubated on ice for 30 minutes before sonication (Amplitude 30%/5 sec×1). […] Blots were imaged using the Odyssey Imaging System (LICOR Biosciences).

[2] = mouse, in vivo
Method: Dose Range Finding Studies
as §2, §3

KMS11 TKO cells = test: In vitro long-term proliferation (LTP) 14-day assay, KMS11 TKO; assay type: cell-based, human; conditions: KMS11 TKO (non-translocated WHSC1 allele only), 14 days
Description: In Vitro Long-Term Proliferation (LTP) Assay

KMS11 tumors = assay type: in vivo
Method: NOD SCID mice received 1×10^7 cells (0.1 mL cell suspension) subcutaneously in the right flank. […] The maximal treatment length was 28 days. Tumor volumes (twice weekly) and body weight (daily) were recorded throughout the experiment. On day 7 or day 28 during the studies, mice were sampled in a pre-specified fashion. Sampling included nonterminal retro-orbital bleeds and full volume blood collection via terminal cardiac puncture under CO2 anesthesia. Blood samples were processed for plasma, with K2-EDTA as anticoagulant, and PBMCs isolated. The samples were frozen at −80° C. and stored before analysis. Tumors were harvested from specified mice under RNase-free conditions and snap frozen in liquid nitrogen. Bone marrow was flushed from the femur using 1×PBS, strained over a 40 um nylon strainer, and flash frozen. Histones were extracted from tumors, bone marrow, and PBMCs as previously described.
(§1) Fluorescent-Based ELISA Assay (Fluroimmunoassay (FIA) Detection of Anti-Histone H3 Tri-Methyl K36)
Histones were prepared in coating buffer and added directly to high-binding 96 well plates. Plates were left at 4° C. overnight to allow histones to adhere. […] Plates were imaged on the Odyssey Imaging System (LI-COR Biosciences) using both 700 nm and 800 nm channels. The average of the ratio values for each test sample was calculated by dividing the 800 nm (H3K36me3) value by the 700 nm value (total H3) and used to determine the percent of H3K36me3 from vehicle.

MM.1S tumors = test: MM.1S non-t(4;14) multiple myeloma xenograft; assay type: in vivo, CB17 SCID mice
Method: CB17 SCID mice were inoculated subcutaneously in the right flank with MM.1S tumor cells (5×10^6) in 0.2 mL of PBS mixed with Matrigel (50:50). After 18 days, mice bearing 100 to 150 mm^3 tumors were sorted into treatment groups with mean tumor volumes of 103 mm^3 (n=10 mice per group). […] The maximal treatment length was 23 days. Tumor volumes and body weight were recorded twice weekly throughout the experiment. On day 18 or day 41 during the studies, mice were sampled in a pre-specified fashion. Sampling included nonterminal retro-orbital bleeds and full volume blood collection via terminal cardiac puncture under CO2 anesthesia. Blood samples were processed for plasma, with K2-EDTA as anticoagulant, and PBMCs isolated. The samples were frozen at −80° C. and stored before analysis. Tumors were harvested from specified mice under RNase-free conditions and snap frozen in liquid nitrogen. Bone marrow was flushed from the femur using 1×PBS, strained over a 40 um nylon strainer, and flash frozen.
as §1
Histones were prepared in coating buffer and added directly to high-binding 96 well plates. […] The average of the ratio values for each test sample was calculated by dividing the 800 nm (H3K36me3) value by the 700 nm value (total H3) and used to determine the percent of H3K36me3 from vehicle.

KMS-34 cells = test: In vitro long-term proliferation (LTP) 14-day assay, KMS-34; assay type: cell-based, human; conditions: FIG. 2C, comparison of enantiomers

CC(=O)N1CCN([C@H]2CCC[C@@H](NC(=O)c3cc4c(F)ccc(C)c4[nH]3)C2)CC1 [Cpd. No. 15, N-((1R,3S)-3-(4-acetylpiperazin-1-yl)cyclohexyl)-4-fluoro-7-methyl-1H-indole-2-carboxamide]
body weight ([1]; 62.5 and 125 mg/kg BID, 7 days, versus vehicle control): No body weight loss
H3K36me3 levels in naïve bone marrow ([1]; oral dosing, 7-day study): substantial reduction
H3K36me2 level (H3K36me3 / H3K36me2): unaffected; also recorded: remained unaltered
H3K36me3 level (H3K36me3 / H3K36me2): dose-dependent decrease; also recorded: reduced
tolerability [2]: very well tolerated
proliferation effect (KMS11 TKO cells): no proliferation effects
effect on body weight (KMS11 tumors; 31.25 mg/kg and 62.5 mg/kg, 28 days BID): minimal effects on body weight
H3K36me3 in histones from tumor (fluorescent-based ELISA) (KMS11 tumors; day 28, all doses): complete reduction
tumor response (KMS11 tumors; oral, 28 days, dose-dependent): robust tumor growth regression
H3K36me3 in MM.1S tumor samples (fluorescent-based ELISA) (MM.1S tumors; BID oral dosing): reduction; also recorded: dose dependent decrease
body weight (MM.1S tumors; all doses, 23 continuous days BID): minimal body weight loss; also recorded: minimal changes in body weight
proliferation defects (KMS-34 cells): proliferation defects
